We go through 16 compounds from patent publication US7858790B2, “Modulators of muscarinic receptors” (Vertex Pharmaceuticals Incorporated, priority 2006, dated 2010).

The target of assay [1] is T1, M1 muscarinic receptor (Homo sapiens, UniProt P11229).
T1 construct: expressed in transfected cells; host or cells: CHO (M1-CHO recombinant cell line)
T1 sequence (P11229 1-460): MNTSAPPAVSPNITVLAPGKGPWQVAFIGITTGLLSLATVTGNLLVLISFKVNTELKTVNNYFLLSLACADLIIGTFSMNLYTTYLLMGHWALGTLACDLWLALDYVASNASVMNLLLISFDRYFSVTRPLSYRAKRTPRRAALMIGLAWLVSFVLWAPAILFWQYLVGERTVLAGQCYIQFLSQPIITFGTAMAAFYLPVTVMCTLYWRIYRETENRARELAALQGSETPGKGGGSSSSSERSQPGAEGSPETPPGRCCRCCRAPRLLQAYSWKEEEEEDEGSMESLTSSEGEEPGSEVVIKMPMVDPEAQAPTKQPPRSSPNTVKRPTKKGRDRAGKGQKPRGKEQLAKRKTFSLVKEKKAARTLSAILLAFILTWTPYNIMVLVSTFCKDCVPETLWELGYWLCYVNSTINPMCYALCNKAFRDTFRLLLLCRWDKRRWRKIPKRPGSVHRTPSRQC
Nature of the assay: Functional mobilization of intracellular calcium (FLIPR) in CHO cells expressing M1 muscarinic receptor. The assay is classed as cell-based. To be noted: for M1 Activity: CHO cells expressing M1, calcium mobilization; for Emax: CHO, 100% efficacy is the maximum response obtained with the Carbachol control. Here is the method: (§1) VI. Assays for Detecting and Measuring Inhibition Properties of Compounds Functional Mobilization of Intracellular Calcium to Determine Muscarinic Receptor Activity:
(§2) CHO cells expressing muscarinic receptors (M1 to M5) are grown as monolayers in tissue culture flasks at 37° C. in a humidified atmosphere containing 5% CO2 and passaged every 3-5 days. The growth media is Dulbecco's modified eagles medium (DMEM, Gibco Cat# 12430-054), containing 25 mM Hepes and supplemented with Fetal Bovine Serum (Hyclone, cat# SH30071.03), 0.1 mM of MEM non-essential amino acids (GIBCO, Cat# 11140-050), 1 mM MEM Sodium Pyruvate (GIBCO Cat# 11360-070) and 100 units/ml of Penicillin G and 100 μg/ml of Streptomycin (GIBCO Cat# 15140-122). The recombinant muscarinic receptor cell lines are grown under antibiotic pressure with media containing 25 μg/ml zeocin and 500 μg/ml G418 (M1-CHO), 4 μg/ml puromycin, 50 μg/ml zeocin and 2.5 μg/ml blasticidin (M2 and M4-CHO) or 50 μg/ml zeocin and 4 μg/ml puromycin (M3 and M5-CHO).
(§3) Cells are harvested at 80-90% confluence using Versene (GIBCO Cat# 15040-066), collected by centrifugation and seeded 18-24 hours prior to running the calcium assay at a density of 5,000-10,000 cells/well in […], clear-bottomed 384-well plates (BD Biocoat, poly-D-lysine, Cat#356663). The day of the experiment, the cells are washed with a plate washer (Bioteck Instruments, ELX 405) using bath buffer (140-mM NaCl, 4.5-mM KCl, 2-mM CaCl2, 1-mM MgCl2, 10-mM Hepes-Na, 10-mM Glucose, pH 7.4, with NaOH) containing 1 mM Probenecid. Next, the calcium dye Fluo-3 (25 μl/well of Fluo-3 μM at 4 μM, Molecular Probes F-1241, in Bath 1 buffer containing 1 mM Probenecid) is added to the 25 μl of Bath 1 remaining in each well after the plate wash and the dye is loaded at 37° C. in the tissue culture incubator for 60-90 min. The fluorescent dye is removed using the plate washer with Bath 1 containing 1 mM Probenecid, leaving 25 μl/well of this solution after the wash. Alternatively, cells can be loaded with the calcium indicator from Molecular Devices (Calcium 3 Assay Reagents, Cat # R7181) adding 5 μl of a 5× solution dye in Bath 1 containing 1 mM Probenecid (10 ml per dye flask cat# R7182 to generate a solution 20×) to 20 μl of the same buffer. After loading for 60 min, the experiment can be run without having to remove the dye.
(§4) Compounds are prepared at a 2× fold concentration in a 96-well plate (round bottom, Costar Corning cat# 3656), by reconstituting the pre-spotted compounds in bath 1 containing 1 mM probenecid. The final concentration DMSO is 0.5%, and the amount of DMSO is normalized across the assay plate. To determine an agonist action of the compounds on muscarinic receptors, the reconstituted compounds are added (25 μl compound/well) to the cell assay plate (containing 25 μl/well) using the multi-channel robotic system of the FLIPR 3 Instrument (Molecular Devices, Sunnyvale, Calif.). To determine a functional inhibitory-action of the compounds on muscarinic receptors, the reconstituted compounds are added (25 μl compound/well) to the assay plate and pre-incubated for 15 min prior to adding 25 μl of Carbachol at 3× the EC80 for each muscarinic subtype. Alternatively, the compounds can be co-applied simultaneously with the agonist. In both assay modes, the fluorescence is recorded for 60 sec (excitation wavelength is […] and emission wavelength 540 nm) using the FLIPR 3 instrument.
(§5) The potency, efficacy and selectivity of the muscarinic compounds were evaluated by screening the compound activity across the whole family (M1 to M5 cells). Compounds were also screened for activity on other proteins such as other GPCRs and ion channels to determine selectivity on M4 receptors.
(§6) Examples of activities and efficacies of the muscarinic compounds of formulae (I, Ia, and Ib) on modulating M1 and M4 receptors are shown below in Table 8. […]
In general terms: Calcium flux is commonly read through the fluorescence of an indicator in the cells.

For assay [2], the target named is T2, M4 muscarinic receptor (Homo sapiens, UniProt P08173).
T2 construct: expressed in transfected cells; host or cells: CHO (M4-CHO recombinant cell line)
T2 sequence (P08173 1-479): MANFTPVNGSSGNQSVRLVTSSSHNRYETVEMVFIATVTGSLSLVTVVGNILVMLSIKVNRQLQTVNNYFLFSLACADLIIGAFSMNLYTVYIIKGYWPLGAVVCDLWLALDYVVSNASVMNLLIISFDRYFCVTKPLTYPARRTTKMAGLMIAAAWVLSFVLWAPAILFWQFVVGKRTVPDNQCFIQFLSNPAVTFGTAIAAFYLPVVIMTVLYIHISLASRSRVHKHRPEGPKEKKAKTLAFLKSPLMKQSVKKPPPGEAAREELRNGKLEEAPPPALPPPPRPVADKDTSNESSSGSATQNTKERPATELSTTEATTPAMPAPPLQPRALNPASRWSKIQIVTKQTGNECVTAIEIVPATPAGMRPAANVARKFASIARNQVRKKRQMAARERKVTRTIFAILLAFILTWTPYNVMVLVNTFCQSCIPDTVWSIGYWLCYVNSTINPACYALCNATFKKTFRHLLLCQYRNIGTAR
In words: Functional mobilization of intracellular calcium (FLIPR) in CHO cells expressing M4 muscarinic receptor. The assay is classed as cell-based. To be noted: for M4 Activity: CHO cells expressing M4, calcium mobilization; for Emax: CHO, 100% efficacy is the maximum response obtained with the Carbachol control. Here is the method:
as §1, §2, §3, §4, §5, §6

One may read the Emax as the size of the effect at its maximum, as opposed to the concentration needed. For the compound `CNC(=O)C1=CC2(CCN(C3C[C@@H]4CC[C@@H]3C4)CC2)c2ccccc21` (stereo in doubt) [Compound No. 38, 1′-(bicyclo[2.2.1]heptan-2-yl)-N-methylspiro[indene-1,4′-piperidine]-3-carboxamide], in assay [1], the “M1 Activity” value is on record as “+ (activity was measured to be greater than 10.0 μM)” and the Emax fell in the range of 25 to 100%. Further, in assay [2], the “M4 Activity” value is reported as “+++ (activity was measured to be less than 2.0 μM)” and the Emax fell in the range of 25 to 100%.
`CN(C)C(=O)C1=CC2(CCN(C3CCCCC3)CC2)c2ccccc21` [compound 61]: in assay [1], the “M1 Activity” value is “+ (activity was measured to be greater than 10.0 μM)” and the Emax is below 25%. Moreover, in assay [2], the “M4 Activity” value is listed as “+++ (activity was measured to be less than 2.0 μM)” and the Emax lay within 25 to 100%.
The like results for `CC(C)(C)CCN1CCC2(CC=C(C#N)c3ccccc32)CC1` [compound 51, 1′-(3,3-dimethylbutyl)-2H-spiro[naphthalene-1,4′-piperidine]-4-carbonitrile] were, in that order, “+++ (activity was measured to be less than 2.0 μM)”, 25 to 100%, “+++ (activity was measured to be less than 2.0 μM)” and 25 to 100%.
The like results for `CN(C)C(=O)C1=CC2(CCN(C3C[C@@H]4CC[C@@H]3C4)CC2)c2ccccc21` (stereo partly shown) [compound 64] were, in that order, “+ (activity was measured to be greater than 10.0 μM)”, below 25%, “+++ (activity was measured to be less than 2.0 μM)” and 25 to 100%.
The like results for `CNC(=O)C1=CC2(CCN(CCC(C)C)CC2)c2ccccc21` [compound 15] were, in that order, “+ (activity was measured to be greater than 10.0 μM)”, 25 to 100%, “+++ (activity was measured to be less than 2.0 μM)” and 25 to 100%.
With `O=C(C1=CCC2(CCN(CC3CC4C=CC3C4)CC2)c2ccccc21)N1CCCC1` (stereo not shown) [compound 34], in assay [1], the “M1 Activity” value is reported as “+++ (activity was measured to be less than 2.0 μM)” and the Emax was 25 to 100%. In assay [2], the “M4 Activity” value is listed as “+ (activity was measured to be greater than 10.0 μM)” and the Emax was below 25%.
The like results for `CCOC(=O)N1CCC(N2CCC3(C=C(C(=O)NC(CC)CC)c4ccccc43)CC2)CC1` [compound 28] were, in that order, “++ (activity was measured to be from 2.0 μM to 10.0 μM)”, 25 to 100%, “+++ (activity was measured to be less than 2.0 μM)” and 25 to 100%.
For `CC(C)NC(=O)C1=CCC2(CCN(CCC(C)(C)C)CC2)c2ccccc21` [compound 52], in that order: “+ (activity was measured to be greater than 10.0 μM)”, below 25%, “+ (activity was measured to be greater than 10.0 μM)” and below 25%.
For `CCC(CC)NC(=O)C1=CC2(CCNCC2)c2ccccc21` [compound 57], in that order: “+ (activity was measured to be greater than 10.0 μM)”, below 25%, “+ (activity was measured to be greater than 10.0 μM)” and below 25%.
On to `CCOC(=O)N1CCC(N2CCC3(C=C(C(=O)N(C)C)c4ccccc43)CC2)CC1` [compound 60], for which, in assay [1], the “M1 Activity” value was “+++ (activity was measured to be less than 2.0 μM)” and the Emax was 25 to 100%. In assay [2], the “M4 Activity” value is “+++ (activity was measured to be less than 2.0 μM)” and the Emax lay within 25 to 100%.
`CN(C)C(=O)C1=CCC2(CCN(C3C[C@@H]4CC[C@@H]3C4)CC2)c2ccccc21` (stereo partly shown) [compound 74]: in assay [1], the “M1 Activity” value is given as “+ (activity was measured to be greater than 10.0 μM)” and the Emax was below 25%. In assay [2], the “M4 Activity” value is “++ (activity was measured to be from 2.0 μM to 10.0 μM)” and the Emax was below 25%.
Take `O=C(NC1CC1)C1=CC2(CCN(CC3CC4C=CC3C4)CC2)c2ccccc21` (stereo not shown) [compound 32]: in assay [1], the “M1 Activity” value is “+ (activity was measured to be greater than 10.0 μM)” and the Emax was in the range of 25 to 100%. Further, in assay [2], the “M4 Activity” value is recorded as “+++ (activity was measured to be less than 2.0 μM)” and the Emax was in the range of 25 to 100%.
On to `CNC(=O)C1=CC2(CCN(C3CCCCC3)CC2)c2ccccc21` [compound 58], for which, in assay [1], the “M1 Activity” value is recorded as “+ (activity was measured to be greater than 10.0 μM)” and the Emax fell in the range of 25 to 100%. For the same compound, in assay [2], the “M4 Activity” value was “+++ (activity was measured to be less than 2.0 μM)” and the Emax lay within 25 to 100%.
As to `CNC(=O)C1=CC2(CCN(CC3CCCCC3)CC2)c2ccccc21` [Compound No. 6], in assay [1], the “M1 Activity” value is listed as “+ (activity was measured to be greater than 10.0 μM)” and the Emax is 25 to 100%. Also, in assay [2], the “M4 Activity” value was “+++ (activity was measured to be less than 2.0 μM)” and the Emax is 25 to 100%.
Turning to `CCC(CC)NC(=O)C1=CC2(CCN(CCC3CCSCC3)CC2)c2ccccc21` [compound 76], in assay [1], the “M1 Activity” value is given as “+ (activity was measured to be greater than 10.0 μM)” and the Emax was below 25%. Also, in assay [2], the “M4 Activity” value is “+ (activity was measured to be greater than 10.0 μM)” and the Emax is below 25%.
For `O=C(O)C1=CC2(CCN(CC3CCCCC3)CC2)c2ccccc21` [compound 54], in assay [1], the “M1 Activity” value is reported as “+ (activity was measured to be greater than 10.0 μM)” and the Emax was below 25%. In addition, in assay [2], the “M4 Activity” value is “+ (activity was measured to be greater than 10.0 μM)” and the Emax is below 25%.
